In patent US20250313528A1, “NOVEL COMPOUND AND PHARMACEUTICAL COMPOSITION FOR PREVENTING OR TREATING PULMONARY FIBROSIS COMPRISING SAME AS ACTIVE INGREDIENT” (GIL MEDICAL CENTER, priority 2022, published 2025):

Assays:
[1] = tested on: bleomycin (BLM)-induced pulmonary fibrosis animal models; test: Hydroxyproline quantification in lung tissue of BLM model; type: in vivo, C57BL/6N mice; conditions: BLM mice, compared to the BLM group
Method: (§1) Specifically, 7-week-old C57BL/6N mice were exposed to BLM (3-5 units/kg) via the airway. The compounds were administered orally at doses of 200 μg/kg and 500 μg/kg for Compound 1, and 100 μg/kg and 200 μg/kg for Compound 2, three times a week for three weeks starting the day after BLM exposure. Body weight gain was periodically measured during the experimental period, and lung weight was measured at the end of the experiment.
Specifically, homogenized lung tissue was placed in 1.5 mL tubes in similar amounts to prevent thawing, and 100 μL of 12 M hydrochloric acid was added for hydrolysis at 120° C. for 3 hours. After centrifugation at 10,000×g for 5 minutes, the supernatant was transferred to a new tube, and 10 μL of the sample was transferred to a 96-well plate and evaporated at 60° C. Subsequently, 100 μL of chloramine T reagent/oxidation buffer mixture was added to each well, followed by 100 μL of para-dimethylaminobenzaldehyde reagent, and reacted at 60° C. for 90 minutes. Absorbance was measured at 540 nm, and the content was determined using a standard calibration curve prepared in the same manner.

MRC-5 cells = test: Wound healing assay, MRC-5; type: cell-based, human; conditions: MRC-5, TGF-β1 treatment, 24 hours, FIG. 6
Method: The effects of Compound 1 and Compound 2, selected in Example 3, on cell migration (wound healing) in MRC-5 and DHLF-IPF cells were examined.
Specifically, cells (1×10^5 cells/well) were seeded in a 60 mm dish to achieve approximately 90% confluency and cultured for 24 hours. Subsequently, a straight line was scratched on the bottom with a 200 μL pipette tip, and the detached cells were removed by washing once with Dulbecco's Phosphate-Buffered Saline (DPBS). The wound was photographed under a microscope, and treatments with TGF-β1 alone, TGF-β1+SFN, TGF-β1+GSF-016, and TGF-1+GSF-018 were applied and cultured for approximately 24 hours, after which the wound was re-photographed. The images taken at 24 hours of culture were analyzed using the Image J (Fiji package) software to measure the distance between cells, and the relative migration was expressed as a percentage (%) compared to the control group.

[2] = tested on: FN, COL1A1, α-SMA, TGF-β, and CTGF; test: qRT-PCR of fibrosis-related genes in lung tissue, BLM model; type: in vivo, C57BL/6N mice; conditions: BLM mice, compared to the BLM group
Method: as §1
Specifically, to extract RNA from lung tissue, approximately 100 mg of pulverized lung tissue was dispensed into 1.5 mL tubes, and total RNA was extracted using TRIzol reagent (TakaRa Bio Inc., Japan). After adding 1 mL of TRIzol reagent to denature the tissue, the samples were transferred to 1.5 ml tubes, and 200 μl of chloroform was added, followed by vortexing for 20 seconds to mix thoroughly. After reacting at room temperature for 15 minutes, the samples were centrifuged at 14,000 rpm for 20 minutes to obtain the supernatant. An equal volume of isopropyl alcohol was added, inverted, and allowed to stand at room temperature for 10 minutes. The samples were centrifuged at 14,000 rpm for 15 minutes to obtain RNA pellets, washed with 70% ethanol at 14,000 rpm for 5 minutes, and dried for 5 minutes. […] The RNA concentration and purity were measured at OD 260/280 nm using a Nanodrop.

Row | Structure (SMILES) | hydroxyproline content in lung tissue ([1]; 100 μg/kg orally) | hydroxyproline content in lung tissue ([1]; 200 μg/kg orally) | cell migration (wound healing) (MRC-5 cells) | expression of five genes (FN, COL1A1, α-SMA, TGF-β, and CTGF) in lung tissue [2]
1 | C=CCOC(=O)C(CSC(=S)NCCCC[S+](C)[O-])NC(C)=O (stereo not shown) [Compound 2] | significant reductions | significant reductions | significantly inhibited in a dose-dependent manner | significant reduction
2 | CCOC(=O)C(CSC(=S)NCCCC[S+](C)[O-])NC(C)=O (stereo not shown) [Compound 1] |  | reduced | significantly inhibited in a dose-dependent manner | significant reduction
